B1: CtCHAD^208–522 (CHAD domain–containing protein from Chlorobium tepidum) (domain or fragment, UniProt Q8KE09 208-522, looked up)
chain: SSKLRLQLDAHASIHENVRRLLQFTTSIMEANEEGIRKDIDSEFLHDFRVAIRRSRSILRLLNGVFDPEKTAWMLAGLRELGKRTNDLRDSDVYLLRREEYTSLLPPSLRPALDPFFSDLEADKRLHHRQFCRYLTGREYSGFMTSLKEFIAEGELPDPETAPLAAEPTGDVAAKTIRKALKKVLVHGRRTGSETSDAELHELRIDCKKLRYLLEFFASLFPPKATAQVLRQMKTLQDNLGTFVDLTVQMEFLQSRLETIPADRGGISEAAAIGGLLTTLYRKREKVREHFHEIFSGFDSNETGELFDELLTGLA
notes: CHAD domain of the C. tepidum CHAD domain–containing protein, UniProt Q8KE09, residues 208-522; synthetic gene; not shown: His6, N-terminal, cleaved

Columns and labels:
ygiF-TTM 1–200 (TTM) = molecular target: T1, ygiF-TTM 1–200 (TTM) (Escherichia coli, UniProt P30871); experiment: malachite green phosphate release; assay type: biochemical; settings: 10 nM enzyme, 500 μM substrate, 20 mM Bis-Tris propane pH 8.5, 150 mM NaCl, 5 mM MgCl2, 37°C, 7 min
T1 sequence (P30871 1-200): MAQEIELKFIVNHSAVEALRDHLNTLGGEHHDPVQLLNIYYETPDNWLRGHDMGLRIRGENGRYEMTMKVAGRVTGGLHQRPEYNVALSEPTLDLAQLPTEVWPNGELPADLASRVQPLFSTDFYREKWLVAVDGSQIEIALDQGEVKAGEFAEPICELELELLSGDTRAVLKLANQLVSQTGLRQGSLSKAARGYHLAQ

[1] = molecular target: T2, ygiF-full length 1–433 (FL) (Escherichia coli, UniProt P30871); experiment: malachite green phosphate release; assay type: biochemical; settings: 10 nM enzyme, 500 μM substrate, 20 mM Bis-Tris propane pH 8.5, 150 mM NaCl, 5 mM MgCl2, 37°C, 7 min
T2 sequence (P30871 1-433): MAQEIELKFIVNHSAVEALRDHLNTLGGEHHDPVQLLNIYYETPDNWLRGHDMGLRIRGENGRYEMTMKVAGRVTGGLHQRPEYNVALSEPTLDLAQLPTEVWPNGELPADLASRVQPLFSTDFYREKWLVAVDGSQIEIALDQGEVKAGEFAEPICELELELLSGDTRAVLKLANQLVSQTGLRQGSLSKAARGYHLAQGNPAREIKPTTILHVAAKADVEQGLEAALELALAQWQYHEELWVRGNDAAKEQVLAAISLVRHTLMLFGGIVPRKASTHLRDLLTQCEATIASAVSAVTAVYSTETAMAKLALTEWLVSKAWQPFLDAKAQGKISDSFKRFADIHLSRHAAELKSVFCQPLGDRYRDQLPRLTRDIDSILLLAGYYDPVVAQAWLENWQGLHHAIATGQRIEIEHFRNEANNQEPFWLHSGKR

CtCHAD = molecular target: T3, CtCHAD (Chlorobaculum tepidum, UniProt Q8KE09); experiment: grating-coupled interferometry competition against polyP-coated chip; assay type: binding
T3 construct: gene CT0884; CHAD domain, residues 208-522; N-terminal 6xHis tag cleaved by TEV; E. coli BL21 (DE3) RIL; 36,194 D monomer; mainly dimer, some tetramer in solution
T3 sequence (Q8KE09 208-522): B1 chain

[2] = molecular target: the molecule itself; experiment: SEC-RALS (size-exclusion chromatography with right-angle light scattering); CtCHAD incubated with 1 mM polyP (average chain length ∼30 Pi units) for 3 h at room temperature, 2 mg/ml, 20 mM Hepes pH 7.5, 150 mM NaCl, Superdex 200 10/300 increase, 35°C
[3] = molecular target: the molecule itself; experiment: SEC; analytical size-exclusion chromatography, Superdex 200 Increase 10/300 GL, buffer A (50 mM PBS, pH 7.5, 500 mM NaCl), 500 μl of protein at 0.5 mg/ml, no polyP
[4] = molecular target: the molecule itself; experiment: SEC-RALS (size-exclusion chromatography with right-angle light scattering); apo CtCHAD, 2 mg/ml, 20 mM Hepes pH 7.5, 150 mM NaCl, Superdex 200 10/300 increase, 35°C

Row | Molecule | malachite green phosphate release (ygiF-TTM 1–200 (TTM)) | malachite green phosphate release [1] | IC50 (CtCHAD) [nM] | stoichiometry N [2] | stoichiometry N [3] | stoichiometry N [4]
1 | O=P(O)(O)OP(=O)(O)OP(=O)(O)O [tripolyphosphate] | The substrates tested were ATP (Merck), sodium tripolyphosphate (Merck), and polyP | CHAD domain stimulated the previously reported tripolyphosphatase activity of ygiF | ~200 |  |  | 
2 | B1 |  |  |  | ≥ 4 | 2 | 4
